From patent US20020106354A1, “CELLULAR AND ANIMAL MODELS FOR DISEASES ASSOCIATED WITH ALTERED MITOCHONDRIAL FUNCTION” (priority 1998, published 2002)

Legend:
INS-1 cells [1] = test: Quantification of mitochondrial DNA by slot blotting (COX-I probe) in INS-1 cells treated with nucleoside analogs; type: cell-based, rat; details: for Relative [mtDNA] After Contact w/ Antiviral / depleted for mitochondrial DNA / effect on mtDNA content / depleted for mtDNA: seven days; for effect on mtDNA content: varying concentrations
Method: Media were replenished every two days. Cells were harvested at periodic intervals and assayed for insulin secretion and mtDNA content. INS-1 cells, or ρ^[…] cells generated using ddC as described above, were seeded into 12-well plates containing RPMI media supplemented as described above at 0.4×10^6 cells/well and cultured at 37° C., 5% CO2 for 2 days. Cells (0.7×10^6 cells/well) were rinsed with PBS and total cellular DNA was extracted using DNAzol (Molecular Research Center, Inc., Cincinnati, Ohio) according to the manufacturer's instructions. One hundred ng DNA from each cell preparation was slot-blotted onto a Zeta-Probe membrane (Bio-Rad, Hercules, Calif.) and crosslinked at 125 joules using a BioRad GS GeneLinker irradiation/energy source. The membranes were rinsed in hybridization buffer (5× SSC, 0.1% N-laurylsarcosine, 0.02% SDS, 1% blocking solution, Boehringer Mannheim, Indianapolis, Ind.) and hybridized overnight in the same buffer at 42° C. with the [^32P]-labeled rat COX I probe. Following hybridization, membranes were washed twice with 2X SSC/0.1% SDS and twice with 0.1× SSC/0.1% SDS and exposed to X-ray film. Mitochondrial DNA was quantified by densitometric scanning of the resulting autoradiographs. Time Course of Effects of ddC on Mitochondrial DNA Content of INS-1 Cells INS-1 cells were grown in RPMI medium supplemented with 10% fetal calf serum, 2 mM […], 100 U/ml penicillin, 100 μg/ml streptomycin, 10 mM HEPES, 1 mM sodium pyruvate, 50 μg/ml uridine, and 50 μM β-mercaptoethanol, in the presence of 10 μM ddC. After various times in culture, cells were harvested for analysis of mtDNA content. Total cellular DNA was extracted from approximately one million cells using DNAzol (Molecular Research Center, Inc. Cincinnati, Ohio) essentially according to the manufacturer's instructions. One hundred ng total DNA was analyzed by slot-blot on Zeta-Probe membranes (Bio-Rad, Hercules, Calif.). The membranes were hybridized with a [^32P]-labeled probe complementary to the mitochondrial gene encoding COXI. Autoradiograms were prepared, and the relative content of mitochondrial DNA (mtDNA) estimated by the relative densities of the autoradiographic bands.

patients = details: cited from earlier work
INS-1 cells [2] = test: Insulin secretion by mtDNA-depleted INS-1 cells (insulin radioimmunoassay); type: cell-based, rat; details: 10 μM for 40 days
Method: INS-1 cells, or ρ^[…] cells generated using ddC as described above, were seeded into 12-well plates containing RPMI media supplemented as described at 0.5×10^6 cells/well and cultured at 37° C., 5% CO2 for 2 days. Cells (0.7×10^6 cells/well were rinsed with glucose-free KRH buffer (134 mM NaCl, 4.7 mM KCl, 1.2 mM KH2PO4, 1.2 mM MgSO4, 1.0 mM CaCl2, 10 mM HEPES, 10 mM NaHCO3, 0.5% BSA), then incubated in the same buffer for 1 hr at 37° C. in a humidified 5% Co2/95% air atmosphere. Fresh KRH buffer containing 0.5 mM isobutylmethyl xanthine and the following secretagogues was added: 5 mM glucose, 10 mM glucose, 20 mM glucose, 5 mM KCl or 20 mM KCl. After an additional 1 hr at 37° C., 5% CO2 the culture supernatants were collected. Insulin concentrations in the supernatants were measured and normalized to cell number using an insulin-specific radioimmunoassay kit (ICN Biochemicals, Irvine, CA) according to the manufacturer's instructions.

INS-1 cells [3] = test: Lactate production in ddC-treated INS-1 cells; type: cell-based, rat
Method: Lactate production was measured in ddC-treated and control INS-1 cells at approximately day 40 and day 50 of ddC incubation. Cells were grown in 35 mm dishes. Media were replenished 16 hr before assay with normal culture media containing various amounts of glucose. The media were then collected, and lactate measured using a commercially available kit, in which lactate dehydrogenase is used to produce a fluorescent compound (Sigma, St. Louis, Mo.), essentially according to the manufacturer's instructions.

INS-1 cells [4] = test: Oxygen consumption (Clark oxygen electrode) before and after KCN; type: cell-based, rat; details: ddC for >50 days (Rho revertants), before and after 1 uM KCN (FIG. 4)
Method: Neurochem. 67:1897-1907, 1996) before and after the addition of 1 uM KCN. KCN inhibits mitochondrial respiration, primarily via its effect on Complex IV activity.

Cc1cn([C@H]2C=C[C@@H](CO)O2)c(=O)[nH]c1=O [d4T, 2′3′-didehydro-3-deoxythymidine]
Relative [mtDNA] After Contact w/ Antiviral (INS-1 cells [1]; 10 μM, INS-1 cells): 0.98
Relative [mtDNA] After Contact w/ Antiviral (INS-1 cells [1]; 50 μM, INS-1 cells): 0.56
depleted for mitochondrial DNA (INS-1 cells [1]; 100 μM): 95%
Relative [mtDNA] After Contact w/ Antiviral (INS-1 cells [1]; 100 μM, INS-1 cells): 0.05
effect on mtDNA content (INS-1 cells [1]; INS-1 cells (FIG. 1)): decreased mtDNA content in a dose-dependent fashion
side-effect of treatment: peripheral neuropathy (patients): axonal peripheral neuropathy

Nc1ccn([C@H]2CC[C@@H](CO)O2)c(=O)n1 [ddC, 2′3′-dideoxycytidine]
KCl-mediated insulin secretion (INS-1 cells [2]): remained intact
glucose stimulated insulin secretion (INS-1 cells [2]; 5, 10, 20 mM glucose (FIG. 3)): no glucose stimulated insulin secretion was observed
lactate produced relative to control (untreated) cells (INS-1 cells [3]; 40-day ddC-treated cells, 25 or 50 mM glucose): > 5 times
lactate produced compared with control (untreated) cells (INS-1 cells [3]; after more than about 50 days ddC): comparable amounts of lactate
Relative [mtDNA] After Contact w/ Antiviral (INS-1 cells [1]; 5 μM, INS-1 cells): 0.86
Relative mtDNA content per million cells (INS-1 cells [1]; 10 μM ddC, day 3): 0.46
Relative mtDNA content per million cells (INS-1 cells [1]; 10 μM ddC, day 7): 0.41
Relative mtDNA content per million cells (INS-1 cells [1]; 10 μM ddC, day 14): 0.055
Relative mtDNA content per million cells (INS-1 cells [1]; 10 μM ddC, day 21): 0.020
Relative mtDNA content per million cells (INS-1 cells [1]; 10 μM ddC, day 40): 0.0021
Relative mtDNA content per million cells (INS-1 cells [1]; 10 μM ddC, day 60): 0.550
Relative mtDNA content per million cells (INS-1 cells [1]; 10 μM ddC, day 80): 0.81
mtDNA content relative to pretreatment (day 0) (INS-1 cells [1]; 10 μM ddC, day 80, about one million cells): about 80%
mtDNA detectability (INS-1 cells [1]; 10 μM, 40 days): undetectable
Relative [mtDNA] After Contact w/ Antiviral (INS-1 cells [1]; 10 μM, INS-1 cells): 0.86
mtDNA detectability (INS-1 cells [1]; 25 μM, after 21 days, INS-1 cells): undetectable
Relative [mtDNA] After Contact w/ Antiviral (INS-1 cells [1]; 50 μM, INS-1 cells): 0.41
depleted for mitochondrial DNA (INS-1 cells [1]; 100 μM): 69%
Relative [mtDNA] After Contact w/ Antiviral (INS-1 cells [1]; 100 μM, INS-1 cells): 0.31
IC50 (INS-1 cells [1]; Rattus norvegicus, INS1, 168 h, seven days incubation, INS-1 cells (FIG. 1), read-out: IC50 for decrease of mtDNA content): ~50 µM
effect on mtDNA content (INS-1 cells [1]; INS-1 cells (FIG. 1)): decreased mtDNA content in a dose-dependent fashion
side-effect of treatment: peripheral neuropathy (patients): axonal peripheral neuropathy
side-effect of treatment: neuropathy (patients; particularly diabetics): toxic and painful neuropathy
mitochondrial-mediated respiration (oxygen consumption) (INS-1 cells [4]): mitochondrial-mediated respiration (Complex IV activity) was present

O=c1[nH]c(=O)n([C@@H]2O[C@H](CO)[C@@H](O)[C@@H]2F)cc1I [FIAU, fialuridine]
Relative [mtDNA] After Contact w/ Antiviral (INS-1 cells [1]; 10 μM, INS-1 cells): 0.66
depleted for mitochondrial DNA (INS-1 cells [1]; 100 μM): 61%
Relative [mtDNA] After Contact w/ Antiviral (INS-1 cells [1]; 100 μM, INS-1 cells): 0.39

O=c1[nH]cnc2c1ncn2[C@H]1CC[C@@H](CO)O1 [ddI, 2′3′-dideoxyinosine]
depleted for mitochondrial DNA (INS-1 cells [1]; 100 μM): 80%
effect on mtDNA content (INS-1 cells [1]; INS-1 cells (FIG. 1)): decreased mtDNA content in a dose-dependent fashion

Cc1cn([C@H]2C[C@H](N=[N+]=[N-])[C@@H](CO)O2)c(=O)[nH]c1=O [AZT, 3′-azido-3′ deoxythymidine]
depleted for mtDNA (INS-1 cells [1]; 5 μM): no depletion of mtDNA
depleted for mtDNA (INS-1 cells [1]; 10 μM): 4%
depleted for mtDNA (INS-1 cells [1]; 50 μM): 15%
depleted for mitochondrial DNA (INS-1 cells [1]; 100 μM): no depletion of mtDNA
